# Laboratory results published in US20250057845A1, “COMBINATION OF A TASK1/3 CHANNEL BLOCKER WITH A P2X3 RECEPTOR ANTAGONIST FOR THE TREATMENT OF SLEEP APNEA” (BAYER AKTIENGESELLSCHAFT, priority 2020, published 2025).
# Columns and labels:
# [1] = tested on: upper airway collapsibility in anaesthetized, spontaneously breathing pigs; experiment: pig model of obstructive sleep apnea (OSA): upper airway collapsibility under negative pressure; assay type: in vivo, German Landrace pigs
# From the text: The therapeutic potential of the combination of a TASK1/3 channel blocker with a P2X3 receptor antagonist according to the present invention in sleep apnea can be assessed preclinically in a pig model of obstructive sleep apnea (OSA).
# Using negative pressure, it is possible to induce collapse and thus obstruction of the upper respiratory tract in anaesthetized, spontaneously breathing pigs (Wirth K. J. et al., Sleep 36(5) (2013) pp. 699-708).
# German Landrace pigs are used for the model. The pigs are anaesthetized and tracheotomized. Two tracheal cannulas are inserted into the trachea, one into the rostral part and the other into the caudal part of the trachea. Using a connection piece, the rostral cannula is connected to a tube to the negative pressure device and to the distal tracheal cannula. The distal tracheal cannula is additionally connected to a tube with an open end to atmosphere via a connection piece that served for free tracheal breathing, circumventing the upper airway. By appropriate opening and clamping of those tubes breathing can be switched from nasal breathing to breathing through the caudal tracheal cannula, circumventing the upper airway, and the (isolated) upper airway can be connected to the negative pressure device, causing airflow in the inspiratory direction.
# At certain points in time, the collapsibility of the upper respiratory tract is tested by having the pig breathe via the caudal cannula and applying negative pressures of −50, −100 and −150 cm water head (cm H2O) to the upper respiratory tract. This causes the upper respiratory tract to collapse, which manifests itself in an interruption of the airflow and a pressure drop in the tube system. This test is conducted prior to the administration of the test substance and at certain intervals after the administration of the test substance. An appropriately effective test substance can prevent this collapse of the respiratory tract in the inspiratory phase.
# [2] = free plasma concentrations of Gefapixant in the OSA pig model (FIG. 4); assay type: in vivo, German Landrace pigs; conditions: pigs, minimal effective dose of Gefapixant (iv bolus 0.3 mg/kg then infusion 0.1 mg/kg/h)
# [3] = 0.3 μg intranasal given at 0 min, time 0 min
# [4] = 0.3 μg intranasal given at 0 min, time 10 min
# [5] = 0.3 μg intranasal given at 0 min, time 30 min
# [6] = 0.3 μg intranasal given at 0 min, time 60 min
# [7] = 0.3 μg intranasal given at 0 min, time 90 min
# [8] = Gefapixant iv bolus 0.3 mg/kg then iv infusion 0.1 mg/kg/h for four hours, given at 0 min, time 0 min
# [9] = Gefapixant iv bolus 0.3 mg/kg then iv infusion 0.1 mg/kg/h for four hours, given at 0 min, time 10 min
# [10] = Gefapixant iv bolus 0.3 mg/kg then iv infusion 0.1 mg/kg/h for four hours, given at 0 min, time 30 min
# [11] = Gefapixant iv bolus 0.3 mg/kg then iv infusion 0.1 mg/kg/h for four hours, given at 0 min, time 60 min
# [12] = Gefapixant iv bolus 0.3 mg/kg then iv infusion 0.1 mg/kg/h for four hours, given at 0 min, time 120 min
# [13] = Gefapixant iv bolus 0.3 mg/kg then iv infusion 0.1 mg/kg/h for four hours, given at 0 min, time 180 min
# [14] = Gefapixant iv bolus 0.3 mg/kg then iv infusion 0.1 mg/kg/h for four hours, given at 0 min, time 240 min
# [15] = Gefapixant iv bolus 0.3 mg/kg then iv infusion 0.1 mg/kg/h for four hours, given at 0 min, time 300 min
compound,measurement,setting,value
"COc1ccc(Cl)c(C(=O)N2C3CCC2CN(Cc2c(-c4ccc(C(C)C)cc4)nc4ncccn24)C3)n1 [(3-chloro-6-methoxypyridin-2-yl)(3-{[2-(4-isopropylphenyl)imidazo[1,2-a]pyrimidin-3-yl]methyl}-3,8-diazabicyclo[3.2.1]oct-8-yl)methanone]",effectiveness of the dose on upper airway collapsibility,[1]; 0.3 μg intranasal,non effective dose
same,"Percent pigs without collaps −50 cm H2O, %",[1]; [3],0%
same,"Percent pigs without collaps −50 cm H2O, %",[1]; [4],33%
same,"Percent pigs without collaps −50 cm H2O, %",[1]; [5],0%
same,"Percent pigs without collaps −50 cm H2O, %",[1]; [6],0%
same,"Percent pigs without collaps −50 cm H2O, %",[1]; [7],0%
same,"Percent pigs without collaps −100 cm H2O, %",[1]; [3],0%
same,"Percent pigs without collaps −100 cm H2O, %",[1]; [4],33%
same,"Percent pigs without collaps −100 cm H2O, %",[1]; [5],0%
same,"Percent pigs without collaps −100 cm H2O, %",[1]; [6],0%
same,"Percent pigs without collaps −100 cm H2O, %",[1]; [7],0%
same,"Percent pigs without collaps −150 cm H2O, %",[1]; [3],0%
same,"Percent pigs without collaps −150 cm H2O, %",[1]; [4],0%
same,"Percent pigs without collaps −150 cm H2O, %",[1]; [5],0%
same,"Percent pigs without collaps −150 cm H2O, %",[1]; [6],0%
same,"Percent pigs without collaps −150 cm H2O, %",[1]; [7],0%
COc1cc(C(C)C)c(Oc2cnc(N)nc2N)cc1S(N)(=O)=O [Gefapixant],"Percent pigs without collaps −50 cm H2O, %",[1]; [8],0%
same,"Percent pigs without collaps −50 cm H2O, %",[1]; [9],0%
same,"Percent pigs without collaps −50 cm H2O, %",[1]; [10],100%
same,"Percent pigs without collaps −50 cm H2O, %",[1]; [11],100%
same,"Percent pigs without collaps −50 cm H2O, %",[1]; [12],0%
same,"Percent pigs without collaps −50 cm H2O, %",[1]; [13],0%
same,"Percent pigs without collaps −50 cm H2O, %",[1]; [14],0%
same,"Percent pigs without collaps −50 cm H2O, %",[1]; [15],0%
same,"Percent pigs without collaps −100 cm H2O, %",[1]; [8],0%
same,"Percent pigs without collaps −100 cm H2O, %",[1]; [9],0%
same,"Percent pigs without collaps −100 cm H2O, %",[1]; [10],100%
same,"Percent pigs without collaps −100 cm H2O, %",[1]; [11],0%
same,"Percent pigs without collaps −100 cm H2O, %",[1]; [12],0%
same,"Percent pigs without collaps −100 cm H2O, %",[1]; [13],0%
same,"Percent pigs without collaps −100 cm H2O, %",[1]; [14],0%
same,"Percent pigs without collaps −100 cm H2O, %",[1]; [15],0%
same,"Percent pigs without collaps −150 cm H2O, %",[1]; [8],0%
same,"Percent pigs without collaps −150 cm H2O, %",[1]; [9],0%
same,"Percent pigs without collaps −150 cm H2O, %",[1]; [10],100%
same,"Percent pigs without collaps −150 cm H2O, %",[1]; [11],0%
same,"Percent pigs without collaps −150 cm H2O, %",[1]; [12],0%
same,"Percent pigs without collaps −150 cm H2O, %",[1]; [13],0%
same,"Percent pigs without collaps −150 cm H2O, %",[1]; [14],0%
same,"Percent pigs without collaps −150 cm H2O, %",[1]; [15],0%
same,effectiveness of the dose on upper airway collapsibility,[1]; iv bolus 0.3 mg/kg then iv infusion 0.1 mg/kg/h for four hours,minimal effective dose
same,only time point after intravenous application at which upper airway collapsibility was inhibited at all three negative pressures in all pigs,"[1]; iv bolus 0.3 mg/kg then iv infusion 0.1 mg/kg/h for four hours, −50, −100 and −150 cm H2O",30 min
same,free plasma concentrations,[2],about 100 nM
